Test results taken from patent publication US7528133B1, “Use of thiazolidinediones derivatives for preventing uterine contractions in premature labour or lactation” (The Board of Regents of The University of Texas System, priority 1998, dated 2009).
pIC50: −log10 of the molar value. Read-outs that look alike come from different tables or passages of the source.

What was measured:
oxytocin receptors (OTR) = target: T1, oxytocin receptors (OTR) (Homo sapiens, UniProt P30559); assay: Competition with 125I-OTA for OTR binding, whole-cell assay in human myometrial cells; conditions: for affinity for OTR binding: FIG. 1
T1 construct: endogenous in cells; host or cells: primary human term pregnant myometrial cells (from C-section tissue, collagenase dispersion)
T1 sequence (P30559 1-389): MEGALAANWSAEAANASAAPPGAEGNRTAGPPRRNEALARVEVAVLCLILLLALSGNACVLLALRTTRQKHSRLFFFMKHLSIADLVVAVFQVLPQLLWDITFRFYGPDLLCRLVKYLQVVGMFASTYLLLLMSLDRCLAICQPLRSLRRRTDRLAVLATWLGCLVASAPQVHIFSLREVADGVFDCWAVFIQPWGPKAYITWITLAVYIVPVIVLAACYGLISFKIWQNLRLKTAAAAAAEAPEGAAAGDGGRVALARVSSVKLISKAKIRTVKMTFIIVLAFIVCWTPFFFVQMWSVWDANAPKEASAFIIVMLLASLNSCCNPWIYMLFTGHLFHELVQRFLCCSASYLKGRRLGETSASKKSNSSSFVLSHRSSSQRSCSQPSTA
Method: FIG. 1. […] Percent inhibition of ^125I-OTA binding in human myometrial cells.
Determination of OTR ligand binding: OTA was monoiodinated as previously described (Hinko and Soloff, 1992). The specific activity of the iodinated peptide was 2000 Ci/mmol at the time of preparation. Whole cell assays for specific OTR binding activity were performed as described previously, using increasing concentrations of [^125I]OTA (Copland et al., 1999). The concentration of cellular DNA was determined in parallel, using the Hoechst dye H 33258 and a Hoefer DyNA Quant fluorometer according to the manufacturer's instructions.
The specific binding was determined by subtracting […]. Specific binding was expressed as a percent of total binding. All points were done in triplicate.

[1] = test system: oxytocin receptor (OTR) in human term myometrial cells; assay: Oxytocin-induced intracellular calcium transients in human term myometrial cells (Fura-2, single cells); type: cell-based; conditions: 0.001 μg/ml (2.2 nM) troglitazone, 1 min before 10 nM oxytocin; FIG. 3B
Method: FIGS. 3A-H. Change in intracellular cytoplasmic calcium levels in human term myometrial cells in culture. Each line represents the change in calcium for a single cell. Cells were either pretreated with troglitazone for one minute and then treated with oxytocin, bombesin (BBS), or bradykinin. These three agents cause an increase in intracellular calcium and cause uterine contraction under the correct circumstance. Cells were grown in 10% FBS, DMEM, penicillin/streptomycin resulting in elevated OTR levels. Cells were then put into KRH buffer containing Fura-2. The cells take up Fura-2 allowing for detection in changes of cytoplasmic levels of calcium. Cells were then treated as described for each figure. […] There is no effect of troglitazone at this concentration upon oxytocin-stimulated calcium transients.
Cell Culture Conditions: The proper protocols were followed in obtaining human term myometrium tissue from mother's delivering via C-section. Human term pregnant myometrial cells were isolated by collagenase dispersion and were grown in media consisting of Delbecco's modified eagles media (DMEM) supplemented with 10% fetal bovine serum (FBS), and 2% penicillin/streptomycin in a humidified tissue culture incubator at 37° C. under an atmosphere of 5% CO2 and 95% air. […]

[2] = test system: oxytocin induced uterine contractions; conditions: Thornton et al. 1999; cited from earlier work
[3] = FIG. 1, read-out: IC50, 125I-OTA binding to OTR

SMILES	pIC50 (oxytocin receptors (OTR); [3])	affinity for OTR binding (oxytocin receptors (OTR))	further results
Cc1c(C)c2c(c(C)c1O)CCC(C)(COc1ccc(CC3SC(=O)NC3=O)cc1)O2 (racemic) [troglitazone, ±5-[[4-[(3,4-dihydro-6-hydroxy-2,5,7,8-tetramethyl-2H-1-benzopyran-2-yl)methoxy]phenyl]methyl]-2,4-thiazolidinedione]	–	–	pIC50 (oxytocin receptors (OTR); FIG. 1, read-out: 50% inhibitory concentration (IC50), 125I-OTA binding to OTR): 7.80; effect on oxytocin-stimulated calcium transients [1]: no effect
CC(=O)[C@H]1CC[C@H]2[C@@H]3CC[C@H]4CC(=O)CC[C@]4(C)[C@H]3CC[C@]12C [5β-dihydroprogesterone]	~4.00	–	concentration needed to inhibit oxytocin induced uterine contractions [2]: 100 µM
C[C@]12CC[C@@H]3c4ccc(O)cc4CC[C@H]3[C@@H]1CC[C@@H]2O [17β-estradiol]	–	no affinity	–
CN(CCOc1ccc(CC2SC(=O)NC2=O)cc1)c1ccccn1 (centres unmarked) [BRL49653, rosiglitazone]	~4.97	–	–

Now from value to compound, other results behind:

pIC50 (oxytocin receptors (OTR); [3])	affinity for OTR binding (oxytocin receptors (OTR))	SMILES	further results
–	no affinity	Cc1c(C)c2c(c(C)c1OC(=O)CCC(=O)O)CC[C@@](C)(CCC[C@H](C)CCC[C@H](C)CCCC(C)C)O2 [Vitamin E succinate]	–
~4.97	–	CCc1ccc(CCOc2ccc(CC3SC(=O)NC3=O)cc2)nc1 (centres unmarked) [pioglitazone]	–
